Reference: patent US20040142971A1, “BENZOTHIOPHENE COMPOUNDS HAVING ANTIINFECTIVE ACTIVITY” (GeneSoft, Inc., priority 2001, published 2004)
≈ marks a conversion by molar mass, not a printed value. Read-outs that look alike come from different tables or passages of the source.

Legend:
S. aureus ATCC 33591 = test: MIC, NCCLS broth microdilution; type: cell-based, Staphylococcus aureus; conditions: for MIC: Staphylococcus aureus
Source text: (§1) In vitro biological activity data were collected for a variety of microorganisms, including Bacillus cereus (ATCC 11778), Staphylococcus aureus (ATCC 27660 (a methicillin resistant strain (MRSA), ATCC 33591 and ATCC 43300); ATCC 13709, a methicillin sensitive strain (MSSA)); Streptococcus pneumoniae (ATCC 51422, a penicillin resistant strain (PRSP)), Enterococcus faecium (ATCC 51559, a vancomycin resistant strain (VRE)), and Staphylococcus epidermidis (ATCC 700586, a methycillin resistant strain (MRSE)). Additionally, antifungal activity data were collected for Candida albicans (ATCC 38247). Minimal inhibition concentrations (MIC's) were determined using the National Committee for Clinical Laboratory Standards (NCCLS) broth microdilution assay in microtiter plates, as set forth in: (1) the guidelines of the National Committee for Clinical Laboratory Standards (NCCLS) Document M7-A4 (NCCLS, 1997); (2) the guidelines of the National Committee for Clinical Laboratory Standards (NCCLS) Document M11-A4 (NCCLS, 1997); and (3) the guidelines and reference method of the National Committee for Clinical Laboratory Standards (NCCLS) Document M27-T (NCCLS, 1995). For antifungal essays, the method recommended in Murray, PR., 1995 Manual of Clinical Microbiology (ASM Press, Washington, D.C.), was employed.

[1] = test system: S. aureus ATCC 13709 (methicillin sensitive strain, MSSA); test: MIC, NCCLS broth microdilution; type: cell-based, Staphylococcus aureus; conditions: for MIC: Staphylococcus aureus, read-out: Minimum Inhibitory Concentration (MIC)
Source text: as §1

[2] = test system: S. aureus ATCC 27660 (methicillin resistant strain, MRSA); test: MIC, NCCLS broth microdilution; type: cell-based, Staphylococcus aureus; conditions: for MIC: Staphylococcus aureus, read-out: Minimum Inhibitory Concentration (MIC)
Source text: as §1

S. aureus ATCC 43300 = test: MIC, NCCLS broth microdilution; type: cell-based; conditions: Staphylococcus aureus, ATCC43300, read-out: Minimum Inhibitory Concentration (MIC)
Source text: as §1

[3] = test system: S. epidermidis ATCC 700586 (methycillin resistant strain, MRSE); test: MIC, NCCLS broth microdilution; type: cell-based, Staphylococcus epidermidis; conditions: for MIC: Staphylococcus epidermidis, read-out: Minimum Inhibitory Concentration (MIC)
Source text: as §1

[4] = test system: S. pneumoniae ATCC 51422 (penicillin resistant strain, PRSP); test: MIC, NCCLS broth microdilution; type: cell-based, Streptococcus pneumoniae; conditions: for MIC: Streptococcus pneumoniae, read-out: Minimum Inhibitory Concentration (MIC)
Source text: as §1

[5] = test system: E. faecium ATCC 51559 (vancomycin resistant strain, VRE); test: MIC, NCCLS broth microdilution; type: cell-based, Enterococcus faecium; conditions: for MIC: Enterococcus faecium, read-out: Minimum Inhibitory Concentration (MIC)
Source text: as §1

B. Cereus ATCC 11778 = test: MIC, NCCLS broth microdilution; type: cell-based, Bacillus cereus; conditions: for MIC: Bacillus cereus
Source text: as §1

[6] = test system: methycillin resistant Staphylococcus aureus ATCC 33591; test: Murine neutropenic thigh model; type: in vivo, mice; conditions: 50 mg/kg intravenously two hours post infection, 6 hr after treatment
Description: A S. aureus ATCC 33591 culture was grown to log phase overnight and diluted in phosphate buffered saline (pH 7.2) to an optical density of about 0.1 at 600 nm, giving an approximate concentration of 10^8 cfu/mL. The suspension was diluted 1:100 in phosphate buffered saline (pH 7.2) for a final concentration of 10^6 cfu/mL.
Outbred female CF1 mice (approx. 20 gram body weight) were rendered neutropenic by treatment with cyclophosphamide (200 mg/kg body weight, intraperitoneal injection) at 2 and 4 days prior to inoculation. Groups of 5 mice were inoculated with 0.05 mL of the bacteria (approx. 10^6 cfu/mL) into the anterior thigh. Each group was treated intravenously two hours post infection with vehicle (phosphate buffered saline) or test compound. The mice were sacrificed at either 6 or 24 hrs after treatment and thighs were collected aseptically. Each thigh was weighed, placed into sterile saline, and homogenized. The tissue homogenates were diluted appropriately for plating on agar plates. Colony counts were recorded (cfu/gram) and compared to control groups.
In vivo efficacy was shown by a decrease in colony count (log cfu/gram of tissue) in the compound-treated animals when compared against the colony count in animals given only the vehicle.

[7] = test system: Candida albicans (ATCC 38247); test: Antifungal MIC; type: cell-based
Source text: as §1, with “employed. The results are presented in Table A below, which is keyed as follows: […]” for “employed.”

| SMILES | Minimum Inhibitory Concentration (MIC) ([1]; C = S. aureus ATCC 13709) | Minimum Inhibitory Concentration (MIC) ([2]; D = S. aureus ATCC 27660) | Minimum Inhibitory Concentration (MIC) (B. Cereus ATCC 11778; A = B. Cereus ATCC 11778) | Minimum Inhibitory Concentration (MIC) (S. aureus ATCC 33591; E = S. aureus ATCC 33591) | Minimum Inhibitory Concentration (MIC) ([3]; G = S. epidermidis ATCC 700586) | Minimum Inhibitory Concentration (MIC) ([4]; H = S. pneumoniae ATCC 51422) | Minimum Inhibitory Concentration (MIC) ([5]; B = E. faecium ATCC 51559) | further results |
| --- | --- | --- | --- | --- | --- | --- | --- | --- |
| Cn1cc(NC(=O)c2cc(NC(=O)c3cc(NC(=O)c4sc5ccccc5c4Cl)cn3C)cn2C)cc1C(=O)NCCN1CCOCC1 [Ib-1] | – | – | – | – | – | – | – | MIC (S. aureus ATCC 33591; ATCC33591, read-out: Minimum Inhibitory Concentration (MIC)): < 4 µg/mL; MIC [1]: < 4 µg/mL; MIC [2]: < 4 µg/mL; MIC (S. aureus ATCC 43300): < 4 µg/mL; MIC [3]: < 4 µg/mL; MIC [4]: < 4 µg/mL; MIC [5]: < 4 µg/mL; MIC (B. Cereus ATCC 11778; ATCC11778, read-out: Minimum Inhibitory Concentration (MIC)): < 4 µg/mL |
| Cn1cc(NC(=O)c2cc(NC(=O)c3cc(NC(=O)c4sc5ccccc5c4Cl)c[nH]3)cn2C)cc1C(=O)NCCN1CCCC1 [Ib-48] | – | – | – | – | – | – | – | MIC (S. aureus ATCC 33591; ATCC33591, E = S. aureus ATCC 33591, read-out: Minimum Inhibitory Concentration (MIC)): < 4 µg/mL; MIC ([1]; C = S. aureus ATCC 13709): < 4 µg/mL; MIC ([2]; D = S. aureus ATCC 27660): < 4 µg/mL; Colony Count (log cfu/gram) Compound [6]: 4.74 log cfu/gram; MIC ([3]; G = S. epidermidis ATCC 700586): < 4 µg/mL; MIC ([4]; H = S. pneumoniae ATCC 51422): < 4 µg/mL; MIC ([7]; ATCC38247, read-out: MIC): < 4 µg/mL; MIC ([5]; B = E. faecium ATCC 51559): 4 to 12 µg/mL (≈ 6.05 to 18.1 µM); MIC (B. Cereus ATCC 11778; ATCC11778, A = B. Cereus ATCC 11778, read-out: Minimum Inhibitory Concentration (MIC)): < 4 µg/mL |
| Cn1cc(NC(=O)c2cc(NC(=O)c3cc(NC(=O)c4cc5ccccc5cn4)c[nH]3)cn2C)cc1C(=O)NCCN1CCOCC1 [Ib-50] | +++ (+++ = MIC ≦ 4) | +++ (+++ = MIC ≦ 4) | +++ (+++ = MIC ≦ 4) | – | – | – | – | Colony Count (log cfu/gram) Compound [6]: 7.97 log cfu/gram; MIC [7]: ++ (++ = MIC between 4 and 12) |
| Cn1cc(NC(=O)c2cc(NC(=O)c3cc(NC(=O)c4cc5ccccc5cn4)c[nH]3)cn2C)cc1C(=O)NCCN1CCC(F)CC1 [Ib-71] | +++ (+++ = MIC ≦ 4) | +++ (+++ = MIC ≦ 4) | +++ (+++ = MIC ≦ 4) | +++ (+++ = MIC ≦ 4) | +++ (+++ = MIC ≦ 4) | +++ (+++ = MIC ≦ 4) | +++ (+++ = MIC ≦ 4) | – |

Further lines, with some results ahead:

| Minimum Inhibitory Concentration (MIC) ([1]; C = S. aureus ATCC 13709) | Minimum Inhibitory Concentration (MIC) ([2]; D = S. aureus ATCC 27660) | Minimum Inhibitory Concentration (MIC) (B. Cereus ATCC 11778; A = B. Cereus ATCC 11778) | Minimum Inhibitory Concentration (MIC) (S. aureus ATCC 33591; E = S. aureus ATCC 33591) | Minimum Inhibitory Concentration (MIC) ([3]; G = S. epidermidis ATCC 700586) | Minimum Inhibitory Concentration (MIC) ([4]; H = S. pneumoniae ATCC 51422) | Minimum Inhibitory Concentration (MIC) ([5]; B = E. faecium ATCC 51559) | SMILES | further results |
| --- | --- | --- | --- | --- | --- | --- | --- | --- |
| +++ (+++ = MIC ≦ 4) | +++ (+++ = MIC ≦ 4) | +++ (+++ = MIC ≦ 4) | +++ (+++ = MIC ≦ 4) | +++ (+++ = MIC ≦ 4) | +++ (+++ = MIC ≦ 4) | +++ (+++ = MIC ≦ 4) | Cn1cc(NC(=O)c2cc(NC(=O)c3cc(NC(=O)c4cc5ccccc5cn4)c[nH]3)cn2C)cc1C(=O)NCCc1ccccn1 [Ib-70] | – |
| +++ (+++ = MIC ≦ 4) | +++ (+++ = MIC ≦ 4) | +++ (+++ = MIC ≦ 4) | +++ (+++ = MIC ≦ 4) | +++ (+++ = MIC ≦ 4) | + (+ = MIC from 12 to 32, inclusive) | +++ (+++ = MIC ≦ 4) | COCn1cc(NC(=O)c2cc3ccccc3cn2)cc1C(=O)Nc1cc(C(=O)Nc2cc(C(=O)NCCN3CCOCC3)n(C)c2)n(C)c1 [Ib-72] | – |
| +++ (+++ = MIC ≦ 4) | +++ (+++ = MIC ≦ 4) | +++ (+++ = MIC ≦ 4) | +++ (+++ = MIC ≦ 4) | +++ (+++ = MIC ≦ 4) | +++ (+++ = MIC ≦ 4) | +++ (+++ = MIC ≦ 4) | CC(=O)[O-].Cc1cc(NC(=O)c2cc(NC(=O)c3cc(NC(=O)c4cc5ccccc5cn4)cn3C)cn2CCC[N+](C)(C)C)sn1 [Ib-74] | – |
| +++ (+++ = MIC ≦ 4) | +++ (+++ = MIC ≦ 4) | +++ (+++ = MIC ≦ 4) | +++ (+++ = MIC ≦ 4) | +++ (+++ = MIC ≦ 4) | +++ (+++ = MIC ≦ 4) | +++ (+++ = MIC ≦ 4) | Cc1cc(NC(=O)c2cc(NC(=O)c3nc(NC(=O)c4cc5ccccc5cn4)cn3C)cn2CCN2CCOCC2)sn1 [Ib-77] | – |
